# According to US20240391978A1, “APOLIPOPROTEIN FUSION PROTEINS FOR CELL-SPECIFIC IMMUNE REGULATION” (BIO-TRIP B.V., priority 2021, published 2024):
# Entries after “also recorded” stand apart in the source; their conditions may differ.
# T1: IL4 receptor in human monocytes (Homo sapiens, UniProt P24394)
# T1 construct: Human monocytes were isolated from a healthy donor's peripheral blood as described above; endogenous in cells; host or cells: primary human monocytes from a healthy donor's peripheral blood
# T1 sequence (P24394 26-825): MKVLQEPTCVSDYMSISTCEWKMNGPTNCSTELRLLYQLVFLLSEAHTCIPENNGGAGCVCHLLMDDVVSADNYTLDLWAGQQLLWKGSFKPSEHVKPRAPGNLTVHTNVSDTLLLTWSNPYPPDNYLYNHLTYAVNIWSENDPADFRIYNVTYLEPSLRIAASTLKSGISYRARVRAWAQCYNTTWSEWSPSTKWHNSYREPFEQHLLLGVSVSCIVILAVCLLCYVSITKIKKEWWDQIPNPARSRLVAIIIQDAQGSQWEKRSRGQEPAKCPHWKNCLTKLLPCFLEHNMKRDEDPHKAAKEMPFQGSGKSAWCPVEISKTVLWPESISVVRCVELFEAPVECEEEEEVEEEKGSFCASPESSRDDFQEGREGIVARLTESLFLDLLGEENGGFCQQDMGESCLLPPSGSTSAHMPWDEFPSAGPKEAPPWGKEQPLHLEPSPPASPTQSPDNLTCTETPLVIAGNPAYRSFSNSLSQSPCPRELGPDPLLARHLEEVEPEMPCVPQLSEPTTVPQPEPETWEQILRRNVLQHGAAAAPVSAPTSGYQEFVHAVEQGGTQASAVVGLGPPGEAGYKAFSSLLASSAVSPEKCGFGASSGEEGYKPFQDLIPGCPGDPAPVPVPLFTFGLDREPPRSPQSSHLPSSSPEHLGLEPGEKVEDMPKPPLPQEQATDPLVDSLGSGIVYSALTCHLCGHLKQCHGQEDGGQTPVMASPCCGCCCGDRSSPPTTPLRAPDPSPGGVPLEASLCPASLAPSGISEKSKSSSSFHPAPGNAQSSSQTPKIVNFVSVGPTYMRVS
# Columns and labels:
# [1] = test system: HEK-Blue™ IL4/IL13 cells; assay: Human embryonic kidney 293 IL4 reporter cell assay (Example 2); format: cell-based; conditions: IL4Rα/STAT6-inducible reporter
# Description: This cell line has a fully active STAT6 pathway and carries a STAT6-inducible SEAP reporter gene. […] The levels of secreted SEAP can be determined with QUANTI-Blue™ (Invivogen). 180 μL DMEM with 10% FBS and 1% Pen-Strep containing […] was added per well in a 96-well-plate. Subsequently, 20 μL stimulus or vehicle was added and cells were incubated for 20-24 hours at 37° C. Subsequently, 180 μL QUANTI-Blue was added per well to a separate 96-well-plate (flat-bottom) and 20 μL of the cell supernatant was added. The plate was incubated for 1-3 hours at 37° C. and absorbance at 640 nm was measured on a Tecan Spark plate reader to determine SEAP levels.
# [2] = test system: primary human monocytes; assay: In vitro inflammation inhibition, LPS-stimulated monocytes; format: cell-based; conditions: 1 hour pre-incubation with inhibitor (Table 2), IL4 + LPS 24 h
# Description: (§1) For pharmacological inhibition experiments, the monocytes were pre-incubated for 1 hour with one of the inhibitors described in Table 2 before addition of the training stimulus.
# In vitro inflammation inhibition: Monocytes were adhered to a flat-bottom cell culture plate for 1 hour and washed with warm PBS to remove any non-adherent cells and cell debris. […] Following the initial 24-hour stimulation, the supernatants were collected and stored at −20° C. until further analysis with ELISA for IL6 and TNF.
# (§2) Cytokine and lactate measurements: TNF, IL6, and IL1Ra were measured in cell culture supernatants using duoset ELISA kits (R&D systems), according to the manufacturer's instructions. For lactate measurements, a fluorometric assay was used. 30 μl sample, medium control, or known standard was added to a black 96-well plate. Then, 30 μl reaction mix (PBS pH 7.4, horse radish peroxidase (0.2 U/ml), lactate oxidase (2 U/ml), Amplex red (100 μM; Fisher scientific)) was added and the reaction was incubated for 20 minutes in the dark at RT. Immediately thereafter, fluorescence was measured at 530/25 nm and 590/35 nm. Gen5 software (v3.03, BioTek) was used in conjunction with Microsoft Excel to calculate cytokine and lactate concentrations in the original samples.
# [3] = test system: primary human monocytes; assay: In vitro model of trained immunity in primary human monocytes; format: cell-based; conditions: 1 hour pre-incubation with inhibitor (Table 2) before IL4 training
# Description: In vitro model of trained immunity in primary human monocytes: To induce trained immunity in primary human monocytes, a previously optimized and published method was used (Dominguez-Andres, J. et al. In vitro induction of trained immunity in adherent human monocytes. STAR Protoc 2, 100365, doi:10.1016/j.xpro.2021.100365 (2021); van Lier, D., Geven, C., Leijte, G. P. & Pickkers, P. Experimental human endotoxemia as a model of systemic inflammation. Biochimie 159, 99-106, doi:10.1016/j.biochi.2018.06.014 (2019)). Briefly: monocytes were adhered to a flat-bottom cell culture plate for 1 hour and washed with warm PBS to remove any non-adherent cells and cell debris. Then, they were stimulated (“trained”) for 24 hours with one of the stimuli detailed in Table 1, or medium only (“untrained” control).
# as §1
# Following the initial 24-hour stimulation, the cells were washed with warm PBS and warm cell culture medium was added. The monocytes were then allowed to rest and differentiate into macrophages for 5 days. On day 6, the induction of trained immunity was assessed. To this end, the cells were typically re-stimulated with LPS for an additional 24 hours to elicit cytokine production. The supernatants were collected and stored at −20° C. until further analysis, e.g. with ELISA for IL6 and TNF.
# as §2
# [4] = biological target: T1, IL4 receptor in human monocytes; assay: Super-resolution fluorescence microscopy (dSTORM) of interactions with IL4 receptor; format: cell-based
# Description: 100,000 monocytes were seeded per well on a cell culture-treated chambered coverslip (μ-Slide 8-well, IBID). After 2 hours of incubation at 37° C. […] Subsequently, the cells were washed with PBS and fixed with 4% PFA for 20 minutes. […] The stained cells were stored in PBS at 4° C. For the direct stochastic optical reconstruction microscopy (dSTORM), the cells were immersed in GLOXY imaging buffer (40 μg/ml catalase, 0.5 mg/ml glucose oxidase, 5% glucose and 0.01 M cysteamine in PBS, pH 8.0) for a few minutes before and during the imaging. The acquisition was performed in Total Internal Reflection Fluorescence (TIRF) mode, using ONI Nanoimager (ONI, Oxford, UK). It is equipped with a 100×/1.4NA oil immersion objective, a sCMOS camera, and, in this study, 488 nm (200 mW) and 640 nm (1000 mW) lasers were used. 10000 frames were acquired with a 10 ms exposure time with the field of view of 50×80 μm. Raw data were processed using the ThunderSTORM software, yielding images with a spatial resolution of 10 nm.
# [5] = biological target: T2, CD8 receptor (Mus musculus, UniProt P01731+P10300); assay: In vitro binding of VHHCD8-apoA1 in mice splenocytes; format: cell-based; conditions: 30 minutes at 4° C.
# T2 construct: Spleens were obtained from mice, cut into pieces, and strained through a 70 μm strainer; from tissue; host or cells: mouse spleen (freshly isolated splenocytes)
# Description: In vitro binding of VHHCD8-apoA1 in mice splenocytes: Spleens were obtained from mice, cut into pieces, and strained through a 70 μm strainer (Corning) multiple times to obtain a splenocyte suspension. Cells were spun down at 1500 rpm for 10 minutes, the supernatant was removed and the cells were dissolved in 2 mL 1× red blood cell lysis buffer (Thermofisher). Suspension was incubated at room temperature for 5 minutes, 10 mL Roswell Park Memorial Institute (RPMI) medium (Thermofisher) was added, and cells were again spun down at 1500 rpm for 10 minutes. Cells were then redissolved in RPMI medium and plated in a 96 wells plate at 150.000 cells/well.
# The proteins were labeled by adding sulfo-cyanine5-maleimide (Lumiprobe) in dimethyl sulfoxide (DMSO) at a 5× molar excess. This mixture was incubated at room temperature for 2 hours. Excess dye was removed using a PD minitrap G-25 desalting column (Cytiva). Fluorescently labeled aNPs were formulated by adding 6.4 μg Dil for discoidal formulations and 21 μg Dil for spherical formulations (see section “formulating nanoparticles” of Example 2). […] (for aNPs) after which cells were harvested, washed, and stained for CD3 and CD4 and measured on Cytoflex (Beckman Coulter Inc.). Flow cytometry data was analyzed using FlowJo software (BD).
# [6] = biological target: T3, CD8 receptor on mouse splenocytes (mouse, UniProt P01731 28-247; P10300 22-213); assay: flow cytometry, fluorescently labelled protein on mouse splenocytes; upper panel 'MFI APC (CD8+) of CD3+ T cells'
# T3 construct: whole, on cells
# T3 sequence (P01731 28-247, chain 1 of 2): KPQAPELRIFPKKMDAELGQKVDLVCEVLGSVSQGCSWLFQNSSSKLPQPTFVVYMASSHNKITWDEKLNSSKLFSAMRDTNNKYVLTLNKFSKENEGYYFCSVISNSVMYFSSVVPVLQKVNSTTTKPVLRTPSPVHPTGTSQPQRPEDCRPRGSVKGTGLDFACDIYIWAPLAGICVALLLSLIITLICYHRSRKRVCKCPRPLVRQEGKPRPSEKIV
# T3 sequence (P10300 22-213, chain 2 of 2): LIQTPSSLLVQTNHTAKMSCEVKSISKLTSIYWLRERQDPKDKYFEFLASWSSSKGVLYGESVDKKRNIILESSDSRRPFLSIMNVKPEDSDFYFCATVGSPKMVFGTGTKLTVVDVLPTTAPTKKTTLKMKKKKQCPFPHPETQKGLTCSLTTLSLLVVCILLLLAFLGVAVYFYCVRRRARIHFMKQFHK
# Description: The proteins were labeled by adding sulfo-cyanine5-maleimide (Lumiprobe) in dimethyl sulfoxide (DMSO) at a 5× molar excess. This mixture was incubated at room temperature for 2 hours. Excess dye was removed using a PD minitrap G-25 desalting column (Cytiva). […] Fluorescently labeled fusion proteins or aNPs and controls were added to the wells and incubated for 30 minutes at 4° C. (for proteins) or 37° C. (for aNPs) after which cells were harvested, washed, and stained for CD3 and CD4 and measured on Cytoflex (Beckman Coulter Inc.). Flow cytometry data was analyzed using FlowJo software (BD).
# T2 sequence (P01731 28-247): as the sequence (P01731 28-247, chain 1 of 2) above
# T2 sequence (P10300 22-213): as the sequence (P10300 22-213, chain 2 of 2) above
molecule,measurement,setting,value
"apoA1-IL4: fusion protein of human apoA1 and human IL4 via flexible linker, 6his-tag and strep-tag (e.g. SEQ ID NO. 35)",SEAP production by HEK-IL4 reporter cells,[1],prominently produced
"CCC(=O)N1CCN(c2ccc(-n3c(=O)ccc4cnc5ccc(-c6cnc7ccccc7c6)cc5c43)cc2C(F)(F)F)CC1 [torin-1, Torin-1, reference compound]","effect of inhibitor on IL4's inhibition of acute inflammation (TNF, IL6)",[2],did not abrogate the effect of IL4 on acute inflammation
same,"effect of inhibitor on trained immunity induction by IL4 (TNF, IL6)",[3],diminished the trained immunity responses; also recorded: significantly blunted
apoA1,binding to primary human monocytes (rim covering the cell surface),"[4]; Cy5-labeled, 2 h at 37° C.",confirmed
same,association with IL4Rα on the cell surface (co-clusters),[4]; zoomed in section of the membrane,did not observe
same,Mean Fluorescence Intensity (MFI) of fluorescently labeled protein,[5],did not show this dose dependent behavior
"NC(=O)c1cnc(NCCc2ccc(O)c(Cl)c2)nc1NCc1ccccc1 [AS1517499, reference compound]","effect of inhibitor on IL4's inhibition of acute inflammation (TNF, IL6)",[2],partly restored cytokine production in acute inflammatory responses
same,"effect of inhibitor on trained immunity induction by IL4 (TNF, IL6)",[3],did not affect trained immunity induction by IL4
"VHHCD8-apoA1 fusion protein (VHH, labelled with sulfo-cyanine5-maleimide (the linker between apoA1 and VHHCD8 comprises a cysteine), Fusion of an anti-CD8 VHH with apoA1, expressed in ClearColi; molecular weight 43.3 kDa) VHH: QVQLQESGGGLVQAGGSLRLSCAASGFTFDDYAIGWFRQAPGKEREGVSCINNSDGSGYVADSVKGRFTISSDNAKNTVYLQMNSLKPEDTAVYYCAAAGDGGCYYGLDYWGKGTQVTVSS",EC50 (read off the curve),[6],~5 nM
